Measurements as given in patent US10808003B2, “Amphipathic molecule based on tandem malonate and use thereof” (Industry-University Cooperation Foundation Hanyang …, priority 2017, dated 2020).

Tests used:
[1] = Critical micelle concentration by fluorescent staining with diphenylhexatriene (DPH); assay type: physicochemical; details: aqueous solution
Description: A method of measuring CMC is not particularly limited, and any method well known in the art, for example, a fluorescent staining method using diphenylhexatriene (DPH) may be used.
(§1) Specifically, a CMC was measured using fluorescent staining and diphenylhexatriene (DPH), and the hydrodynamic radii (Rh) of micelles formed by each agent (1.0 wt %) were measured by a DLS test. The measured results were compared with those for the conventional amphipathic molecule (detergent), DDM, and thus are shown in Table 1.

[2] = Hydrodynamic radius of micelles by dynamic light scattering (DLS); assay type: physicochemical; details: for micelle size and homogeneity in words: 1.0 wt %, FIGS. 5 and 6; for Rh (nm), hydrodynamic radius of micelles: micelles formed by each agent at 1.0 wt %
Description: A method of measuring the radius of the micelles is not particularly limited, and any method well known in the art, for example, a DLS test may be used.
as §1

[3] = system: LeuT (leucine transporter); test: LeuT stability by [3H]-Leu substrate binding, scintillation proximity assay (SPA); assay type: biochemical, Aquifex aeolicus; details: for activity of LeuT after incubation, relative to DDM: CMC+0.04 wt %, after incubation at room temperature; for activity of LeuT after incubation, relative to DDM / activity of LeuT over time: FIG. 13a; for activity of LeuT over time: TMMs or DDM at CMC+0.04 wt %, incubation at room temperature; for substrate-binding ability of LeuT: TMGs or DDM at CMC+0.04 wt %, 10 days at room temperature
Description: An experiment of measuring LeuT protein stability for TMGs and TMMs was performed. (a) CMC+0.04 wt % or (b) CMC+0.2 wt % of each amphipathic molecule was used, and the evaluation of the LeuT protein stability was performed by taking an advantage of a characteristic of LeuT binding to a substrate through a scintillation proximity assay (SPA) using [^3H]-Leu. […]
Specifically, wild type LeuT (leucine transporter) derived from a thermophilic bacterium, Aquifex aeolicus, was purified by a previously-disclosed method (G. Deckert et al., Nature 1998, 392, 353-358). LeuT was expressed in E. coli C41 (DE3) transformed with pET16b encoding a C-terminus 8×His-tagged transporter (the expression plasmid was provided by Dr E. Gouaux, Vollum Institute, Portland, Oreg., USA). In summary, following isolation of a bacterial membrane and lysis with 1% (w/v) DDM, the protein was allowed to bind to a Ni^2+-NTA resin (Life Technologies, Denmark), and eluted in 20 mM Tris-HCl (pH 8.0), 1 mM NaCl, 199 mM KCl, 0.05% (w/v) DDM and 300 mM imidazole. Afterward, the purified LeuT (approximately 1.5 mg/ml) was diluted with the same buffer used above, from which DDM and imidazole were removed, and then supplemented with TMGs or DDM at the final concentration of CMC+0.04% (w/v). […] SPA was performed using a buffer containing 450 mM NaCl and each of the TMGs and TMMs at the predetermined concentration. The SPA reaction is performed in the presence of 20 nM [^3H]-Leucine and 1.25 mg/ml copper chelate (His-Tag) YSi beads (Perkin Elmer, Denmark). A total [^3H]-Leucine binding degree of each sample was measured using a MicroBeta liquid scintillation counter (Perkin Elmer).

[4] = molecular target: T1, uric acid-xanthine/H+ symporter (UapA) (Emericella nidulans, UniProt Q07307, G411V); test: Thermal/structural stability of UapA by CPM fluorescence assay; assay type: biochemical, Aspergillus nidulans; details: for ability to conserve UapA transporter in a folded state: 125 minutes at 40° C.
T1 construct: GFP; made in house; host or cells: Saccharomyces cerevisiae FGY217
T1 sequence (Q07307 12-574 G411V): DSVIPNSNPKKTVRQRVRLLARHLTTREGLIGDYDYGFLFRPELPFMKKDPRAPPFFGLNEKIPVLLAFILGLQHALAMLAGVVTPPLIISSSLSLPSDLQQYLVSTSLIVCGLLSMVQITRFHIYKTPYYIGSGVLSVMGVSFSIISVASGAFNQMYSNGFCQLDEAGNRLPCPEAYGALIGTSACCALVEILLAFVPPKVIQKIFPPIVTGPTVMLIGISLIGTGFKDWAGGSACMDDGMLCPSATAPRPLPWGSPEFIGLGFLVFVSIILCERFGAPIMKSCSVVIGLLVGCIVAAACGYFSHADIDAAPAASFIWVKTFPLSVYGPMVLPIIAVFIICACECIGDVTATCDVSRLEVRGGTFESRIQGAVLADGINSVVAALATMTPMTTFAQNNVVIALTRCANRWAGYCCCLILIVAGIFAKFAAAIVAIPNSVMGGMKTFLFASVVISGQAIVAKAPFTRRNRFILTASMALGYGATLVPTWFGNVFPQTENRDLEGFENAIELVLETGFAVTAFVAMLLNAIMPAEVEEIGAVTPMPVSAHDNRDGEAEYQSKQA
Description: An experiment of measuring structural stability of a uric acid-xanthine/H+ symporter (UapA) separated from Aspergillus nidulans by TMG was performed. The structural stability of UapA was evaluated using a sulfhydryl-specific fluorophore and N-[4-(7-diethylamino-4-methyl-3-coumarinyl)phenyl]maleimide (CPM).
Specifically, UapAG411V1-11 (hereinafter, referred to as “UapA”) expressed as a GFP fusion protein from a Saccharomyces cerevisiae FGY217 strain, and the protein was separated using a sample buffer (20 mM Tris (pH 7.5), 150 mM NaCl, 0.03% DDM, 0.6 mM xanthine) according to a method disclosed in the article written by J. Leung et al. (Mol. Membr. Biol. 2013, 30, 32-42). The protein having a molecular weight of 100 kDa was concentrated to approximately 10 mg/mL using a cut-off filter (Millipore). The protein was diluted with a buffer containing each of the TMG-As (TMG-A11, TMG-A12, TMG-A13 and TMG-A14), TMG-Ts (TMG-T11, TMG-T12, TMG-T13 and TMG-T14), MNG-3 or DDM at a ratio of 1:150 to reach the final concentration of CMC+0.04 wt % or CMC+0.2 wt % in a Greiner 96-well plate. A CPM dye (Invitrogen) stored in DMSO (Sigma) was diluted with a staining buffer (20 mM Tris (pH 7.5), 150 mM NaCl, 0.03% DDM, 5 mM EDTA), and 3 μL of the staining buffer was added to each sample. The reaction mixture was incubated at a constant temperature for 125 minutes at 40° C. Fluorescence emission was recorded using a microplate spectrofluorometer set to each of excitation and emission wavelengths of 387 nm and 463 nm. A relative amount of folded proteins was plotted over time using GraphPad Prism.

Row | activity of LeuT over time [3] | SMILES | CMC [1] [mM] | CMC (wt %) [1] [wt %] | micelle size and homogeneity in words [2] | Rh (nm), hydrodynamic radius of micelles [2] [nm] | activity of LeuT after incubation, relative to DDM [3] | overall LeuT stabilisation characteristic among TMMs ([3]; CMC+0.04 wt % and CMC+0.2 wt %, FIGS. 13a and 13b) | ability to maintain the UapA transporter structure, comparison with MNG-3 and DDM ([4]; concentration not given) | ability to conserve UapA transporter in a folded state ([4]; CMC+0.04 wt %, FIG. 9) | ability to conserve UapA transporter in a folded state ([4]; CMC+0.2 wt %, FIG. 10) | substrate-binding ability of LeuT [3]
1 | – | CC(C)CCC[C@@H](C)C1CCC2C3CC=C4CC(OCC(CO[C@@H]5OC(CO)[C@@H](O[C@H]6OC(CO)[C@@H](O)C(O)C6O)C(O)C5O)(CO[C@@H]5OC(CO)[C@@H](O[C@H]6OC(CO)[C@@H](O)C(O)C6O)C(O)C5O)CSCC(COC5CCC6(C)C(=CCC7C6CCC6(C)C7CCC6[C@H](C)CCCC(C)C)C5)(CO[C@@H]5OC(CO)[C@@H](O[C@H]6OC(CO)[C@@H](O)C(O)C6O)C(O)C5O)CO[C@@H]5OC(CO)[C@@H](O[C@H]6OC(CO)[C@@H](O)C(O)C6O)C(O)C5O)CCC4(C)C3CCC21C (stereo partly drawn) [TMM-E27] | ~0.008 | ~0.00018 | large | 4.7 ± 0.10 | protein activity similar to DDM | – | – | – | – | –
2 | slightly increased over time | CCCCCCCCCCC(CCCCCCCCCC)COCC(CO[C@@H]1OC(CO)[C@@H](O[C@H]2OC(CO)[C@@H](O)C(O)C2O)C(O)C1O)(CO[C@@H]1OC(CO)[C@@H](O[C@H]2OC(CO)[C@@H](O)C(O)C2O)C(O)C1O)CSCC(COCC(CCCCCCCCCC)CCCCCCCCCC)(CO[C@@H]1OC(CO)[C@@H](O[C@H]2OC(CO)[C@@H](O)C(O)C2O)C(O)C1O)CO[C@@H]1OC(CO)[C@@H](O[C@H]2OC(CO)[C@@H](O)C(O)C2O)C(O)C1O (stereo partly drawn) [TMM-C22] | ~0.002 | ~0.00044 | – | 3.6 ± 0.09 | two-fold higher than that of the protein dissolved in DDM | – | – | – | – | –
3 | – | CC1CCC2(OC1)OC1CC3C4CC=C5CC(OCC(CO[C@@H]6OC(CO)[C@@H](O[C@H]7OC(CO)[C@@H](O)C(O)C7O)C(O)C6O)(CO[C@@H]6OC(CO)[C@@H](O[C@H]7OC(CO)[C@@H](O)C(O)C7O)C(O)C6O)CSCC(COC6CCC7(C)C(=CCC8C7CCC7(C)C8CC8OC9(CCC(C)CO9)C(C)C87)C6)(CO[C@@H]6OC(CO)[C@@H](O[C@H]7OC(CO)[C@@H](O)C(O)C7O)C(O)C6O)CO[C@@H]6OC(CO)[C@@H](O[C@H]7OC(CO)[C@@H](O)C(O)C7O)C(O)C6O)CCC5(C)C4CCC3(C)C1C2C (stereo partly drawn) [TMM-D27] | ~0.010 | ~0.0024 | relatively small micelles | 3.1 ± 0.07 | protein activity similar to DDM | – | – | – | – | –
4 | slightly increased over time | CCCCCCCCCCCC(CCCCCCCCCCC)COCC(CO[C@@H]1OC(CO)[C@@H](O[C@H]2OC(CO)[C@@H](O)C(O)C2O)C(O)C1O)(CO[C@@H]1OC(CO)[C@@H](O[C@H]2OC(CO)[C@@H](O)C(O)C2O)C(O)C1O)CSCC(COCC(CCCCCCCCCCC)CCCCCCCCCCC)(CO[C@@H]1OC(CO)[C@@H](O[C@H]2OC(CO)[C@@H](O)C(O)C2O)C(O)C1O)CO[C@@H]1OC(CO)[C@@H](O[C@H]2OC(CO)[C@@H](O)C(O)C2O)C(O)C1O (stereo partly drawn) [TMM-C24] | ~0.0015 | ~0.00034 | – | 3.9 ± 0.08 | two-fold higher than that of the protein dissolved in DDM | the most excellent characteristic and was superior to DDM | – | – | – | –
5 | – | CCCCCCCCCCC(CCCCCCCCCC)(CO[C@@H]1O[C@H](CO)[C@@H](O[C@H]2O[C@H](CO)[C@@H](O)[C@H](O)[C@H]2O)[C@H](O)[C@H]1O)CO[C@@H]1O[C@H](CO)[C@@H](O[C@H]2O[C@H](CO)[C@@H](O)[C@H](O)[C@H]2O)[C@H](O)[C@H]1O [MNG-3, reference compound] | – | – | – | – | – | – | a little superior to DDM | – | – | –
6 | – | CC(C)CCC[C@@H](C)C1CCC2C3CCC4CC(OCC(CO[C@@H]5OC(CO)[C@@H](O[C@H]6OC(CO)[C@@H](O)C(O)C6O)C(O)C5O)(CO[C@@H]5OC(CO)[C@@H](O[C@H]6OC(CO)[C@@H](O)C(O)C6O)C(O)C5O)CSCC(COC5CCC6(C)C(CCC7C6CCC6(C)C7CCC6[C@H](C)CCCC(C)C)C5)(CO[C@@H]5OC(CO)[C@@H](O[C@H]6OC(CO)[C@@H](O)C(O)C6O)C(O)C5O)CO[C@@H]5OC(CO)[C@@H](O[C@H]6OC(CO)[C@@H](O)C(O)C6O)C(O)C5O)CCC4(C)C3CCC21C (stereo partly drawn) [TMM-A27] | ~0.006 | ~0.00014 | large | 4.1 ± 0.10 | protein activity similar to DDM | – | – | – | – | –
7 | – | CCCCCCCCCCCC(CCCC(CCCCCCCCCCC)(CO[C@@H]1OC(CO)[C@@H](O)C(O)C1O)CO[C@@H]1OC(CO)[C@@H](O)C(O)C1O)(CO[C@@H]1OC(CO)[C@@H](O)C(O)C1O)CO[C@@H]1OC(CO)[C@@H](O)C(O)C1O (stereo partly drawn) [TMG-A11] | ~0.015 | ~0.0017 | – | 3.1 ± 0.15 | – | – | – | the least excellent in transporter stability | the least effective, and had lower stability than DDM | –
8 | – | CCCCCCCCCCCOCC(CO[C@@H]1OC(CO)[C@@H](O)C(O)C1O)(CO[C@@H]1OC(CO)[C@@H](O)C(O)C1O)CSCC(COCCCCCCCCCCC)(CO[C@@H]1OC(CO)[C@@H](O)C(O)C1O)CO[C@@H]1OC(CO)[C@@H](O)C(O)C1O (stereo partly drawn) [TMG-T11] | ~0.020 | ~0.0025 | – | 3.0 ± 0.07 | – | – | – | – | the least effective, and had lower stability than DDM | a better characteristic than DDM
9 | – | CCCCCCCCCCCCOCC(CO[C@@H]1OC(CO)[C@@H](O)C(O)C1O)(CO[C@@H]1OC(CO)[C@@H](O)C(O)C1O)CSCC(COCCCCCCCCCCCC)(CO[C@@H]1OC(CO)[C@@H](O)C(O)C1O)CO[C@@H]1OC(CO)[C@@H](O)C(O)C1O (stereo partly drawn) [TMG-T12] | ~0.015 | ~0.0019 | – | 3.1 ± 0.06 | – | – | – | – | – | a better characteristic than DDM
10 | – | CCCCCCCCCCCCC(CCCCCCCCCCCC)COCC(CO[C@@H]1OC(CO)[C@@H](O[C@H]2OC(CO)[C@@H](O)C(O)C2O)C(O)C1O)(CO[C@@H]1OC(CO)[C@@H](O[C@H]2OC(CO)[C@@H](O)C(O)C2O)C(O)C1O)CSCC(COCC(CCCCCCCCCCCC)CCCCCCCCCCCC)(CO[C@@H]1OC(CO)[C@@H](O[C@H]2OC(CO)[C@@H](O)C(O)C2O)C(O)C1O)CO[C@@H]1OC(CO)[C@@H](O[C@H]2OC(CO)[C@@H](O)C(O)C2O)C(O)C1O (stereo partly drawn) [TMM-C26] | ~0.0015 | ~0.00034 | – | 4.3 ± 0.07 | protein activity similar to DDM | – | – | – | – | –
